Results: US20240010726A1, “LFA-1 SIGNALLING MEDIATOR FOR USE IN CANCER THERAPY” (Universität Basel, priority 2020, published 2024)

Experiments:
LFA-1 = target: T1, LFA-1 (Homo sapiens, UniProt P05107+P20701); test: Flow cytometry of LFA-1 open head-piece (mAb m24) on EM and naïve CD8 T cells; format: cell-based
T1 construct: endogenous in cells; host or cells: primary human T cells from healthy donors: PHA-induced T cell blasts, sorted EM and naive CD8 T cells, and NY-ESO-1 TCR-transduced REP T cells
Experimental: FIG. 2: Extracellular magnesium promotes memory-specific activation via LFA-1. Glycolytic switch of human EM CD8 T cells (a) and naïve CD8 T cells (b) subsets upon injection of anti-CD3 Ab only, or anti-CD3 and anti-CD28 Ab, was assessed by metabolic flux analysis in medium containing either 1.2 mM Mg^2+, 0 mM Mg^2+, or medium which was reconstituted from 0 mM to 1.2 mM Mg^2+ immediately prior to activation (0→1.2 mM Mg^2+). (a) Results for human effector memory (EM) and (b) for human naïve CD8 T cells. Glycolytic switch was quantified by subtracting […] measurements. (c) Flow cytometric analysis of surface activation markers on human EM CD8 T cells 24 hours after activation by plate-bound anti-CD3 Ab and soluble anti-CD28 Ab, in 1.2 mM and 0 mM Mg^2+ media, respectively. (d) Abundance of inflammatory cytokines in corresponding EM CD8 T cell culture supernatants, determined by CBA. (e) CD11a (LFA-1) surface expression on human naïve and EM CD8 T cells as well PHA T cell blasts. Flow cytometry-based assessment of total LFA-1 expression assessed by mAb TS2/4 (f), closed conformation of αL by mAb HI111 (g), extended conformation of LFA-1 by mAb Kim127 (h), open head-piece conformation of LFA-1 by mAb m24 (i), phosphorylation of focal adhesion kinase (FAK) […] as well TNF expression (k)±TCR-induced activation in different extracellular Mg^2+ concentrations. […]

PHA T cell blasts = test: CD69 expression of PHA T cell blasts at increasing plate-bound anti-CD3 mAb; format: cell-based, human; settings: augmenting concentrations of plate-bound anti-CD3 mAb; ±Mg^2+
Experimental: FIG. 4: Magnesium regulates LFA-1 mediated T cell activation and cytotoxicity within physiologic range • (a) Metabolic flux analysis of human EM CD8 T cells upon supra-physiologic activation with anti-CD3 and anti-CD28 Ab, and additional injection of secondary, cross-linking anti-CD3/28 Ab, in medium containing 1.2 mM Mg^2+, 0 mM Mg^2+, or medium which was reconstituted to 1.2 mM Mg^2+ immediately prior to activation (0→1.2 mM Mg^2+). Pooled results from n=6 healthy donors from 3 independent experiments. (b) CD69 expression of PHA T cell blasts upon activation with indicated concentrations of plate-bound anti-CD3 mAb in ±Mg^2+ containing medium. (c) Caspase-3 activity in EL4 target cells after co-culture for 4 hours with murine WT and LFA-1^−/− CTLs in medium containing 1.2 mM Mg^2+ or 0 mM Mg^2+, in presence of PHA at the indicated concentrations. The effector to target cell ratio was 3:1. Pooled results, n=3-4, from 2 independent experiments. (d) Cytotoxicity assay using WT and LFA-1^−/− OT1 CTLs, co-cultured for 4 hours in medium containing 1.2 mM Mg^2+ or 0 mM Mg^2+ with luciferase-expressing EL4 target cells (pulsed with altered OVA peptides at 10^−6 M). Cytotoxicity was quantified after adding luciferin to medium and measuring luminescent signal intensity. […] Cytotoxicity was quantified after adding luciferin to medium and measuring luminescent signal intensity. […]

[1] = system: luciferase-expressing EL4 target cells; test: Cytotoxicity assay of WT and LFA-1−/− OT1 CTLs with luciferase-expressing EL4 target cells; format: cell-based, murine; settings: EL4 pulsed with altered OVA peptides (G4, H7, R7) at 10^−6 M; 4 h; E:T 3:1; 1.2 mM or 0 mM Mg^2+
Experimental: FIG. 4: Magnesium regulates LFA-1 mediated T cell activation and cytotoxicity within physiologic range • (a) Metabolic flux analysis of human EM CD8 T cells upon supra-physiologic activation with anti-CD3 and anti-CD28 Ab, and additional injection of secondary, cross-linking anti-CD3/28 Ab, in medium containing 1.2 mM Mg^2+, 0 mM Mg^2+, or medium which was reconstituted to 1.2 mM Mg^2+ immediately prior to activation (0→1.2 mM Mg^2+). Pooled results from n=6 healthy donors from 3 independent experiments. (b) CD69 expression of PHA T cell blasts upon activation with indicated concentrations of plate-bound anti-CD3 mAb in ±Mg^2+ containing medium. […] Cytotoxicity was quantified after adding luciferin to medium and measuring luminescent signal intensity. […] Cytotoxicity was quantified after adding luciferin to medium and measuring luminescent signal intensity. […]
OT-I derived CTLs were stimulated with OVA257-264 peptide ([…], Eurogentec) or the altered peptide ligands R7 ([…], Eurogentec), H7 ([…], Eurogentec) or G4 ([…], Eurogentec) at 10 μM for 4 h. […] Cytotoxicity was either evaluated with fluorogenic caspase-3 substrate (as described above) or luciferase-expressing EL4 target cells. Cytotoxicity was quantified after adding luciferin at 0.15 mg ml^−1 (PerkinElmer) to medium and measuring luminescent signal intensity by plate reader (Synergy H1, BioTek).

T1 sequence (P20701 26-1170): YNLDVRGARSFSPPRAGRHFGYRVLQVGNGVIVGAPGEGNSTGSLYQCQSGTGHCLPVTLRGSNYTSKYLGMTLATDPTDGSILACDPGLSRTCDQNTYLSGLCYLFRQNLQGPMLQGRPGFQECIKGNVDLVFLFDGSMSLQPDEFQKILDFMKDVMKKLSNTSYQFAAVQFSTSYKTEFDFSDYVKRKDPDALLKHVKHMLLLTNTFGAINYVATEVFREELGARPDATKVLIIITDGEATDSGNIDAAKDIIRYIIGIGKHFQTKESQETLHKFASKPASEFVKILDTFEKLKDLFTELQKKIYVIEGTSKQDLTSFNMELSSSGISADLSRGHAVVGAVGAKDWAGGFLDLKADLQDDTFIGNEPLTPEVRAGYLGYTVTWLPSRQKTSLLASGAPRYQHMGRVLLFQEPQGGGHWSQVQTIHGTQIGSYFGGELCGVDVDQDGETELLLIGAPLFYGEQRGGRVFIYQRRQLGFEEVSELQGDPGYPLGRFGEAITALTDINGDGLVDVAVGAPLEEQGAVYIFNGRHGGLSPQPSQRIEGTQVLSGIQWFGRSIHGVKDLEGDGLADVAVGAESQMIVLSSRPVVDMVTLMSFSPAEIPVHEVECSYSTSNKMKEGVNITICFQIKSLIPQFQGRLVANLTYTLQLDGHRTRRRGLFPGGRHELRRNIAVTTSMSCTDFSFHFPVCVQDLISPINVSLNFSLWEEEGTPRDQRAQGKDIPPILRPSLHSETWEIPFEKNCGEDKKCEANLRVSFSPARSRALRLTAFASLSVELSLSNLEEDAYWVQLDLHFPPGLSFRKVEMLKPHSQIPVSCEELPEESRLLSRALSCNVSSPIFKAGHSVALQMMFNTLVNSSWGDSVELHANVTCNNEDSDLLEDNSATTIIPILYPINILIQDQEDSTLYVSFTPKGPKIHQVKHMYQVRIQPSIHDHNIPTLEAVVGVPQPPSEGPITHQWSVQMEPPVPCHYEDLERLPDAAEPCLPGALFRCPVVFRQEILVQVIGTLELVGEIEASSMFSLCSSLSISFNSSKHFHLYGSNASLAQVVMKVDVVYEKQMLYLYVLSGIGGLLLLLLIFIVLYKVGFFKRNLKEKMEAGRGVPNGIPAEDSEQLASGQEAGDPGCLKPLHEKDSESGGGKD
T1 sequence (P05107 23-769): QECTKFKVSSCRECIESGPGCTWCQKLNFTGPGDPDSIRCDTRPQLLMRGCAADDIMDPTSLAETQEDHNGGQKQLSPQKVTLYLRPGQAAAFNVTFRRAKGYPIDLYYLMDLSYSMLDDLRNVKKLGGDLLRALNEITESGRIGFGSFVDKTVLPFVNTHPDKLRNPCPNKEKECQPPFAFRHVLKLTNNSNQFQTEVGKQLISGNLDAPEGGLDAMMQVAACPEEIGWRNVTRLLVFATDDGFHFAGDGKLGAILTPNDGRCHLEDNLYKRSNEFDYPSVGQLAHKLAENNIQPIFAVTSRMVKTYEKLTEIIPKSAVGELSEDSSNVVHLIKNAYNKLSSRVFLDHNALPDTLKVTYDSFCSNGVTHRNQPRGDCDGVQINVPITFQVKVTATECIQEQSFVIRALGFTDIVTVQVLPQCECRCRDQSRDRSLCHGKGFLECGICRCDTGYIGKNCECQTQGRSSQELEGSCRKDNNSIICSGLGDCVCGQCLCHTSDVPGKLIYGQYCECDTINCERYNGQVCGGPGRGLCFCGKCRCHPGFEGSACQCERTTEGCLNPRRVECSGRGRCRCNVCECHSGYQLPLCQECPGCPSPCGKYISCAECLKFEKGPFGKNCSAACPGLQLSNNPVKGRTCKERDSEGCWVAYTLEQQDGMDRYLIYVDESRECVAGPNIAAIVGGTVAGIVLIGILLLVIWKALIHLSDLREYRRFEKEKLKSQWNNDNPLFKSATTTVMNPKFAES

Compound: [Mg+2] [Mg^2+, Magnesium]
- Activation induced LFA-1 head-piece opening (m24) on EM CD8 T cells (LFA-1; Mg^2+-restricted conditions vs Mg^2+): reduced activation induced LFA-1 head-piece opening
- Activation induced LFA-1 head-piece opening (m24) on naïve CD8 T cells (LFA-1; moderate TCR stimulation, ±Mg^2+): did not induce LFA-1 head-piece opening
- CD69 expression of PHA T cell blasts (PHA T cell blasts): less pronounced dependence
- Specific target cell lysis by OT1 CTLs [1]: confirmed across a spectrum of TCR affinities
